Literature values as cited in article PMC11002876, “KcsA-Kv1.x chimeras with complete ligand-binding sites provide improved predictivity for screening selective Kv1.x blockers” (The Journal of Biological Chemistry, 2024).

Assays:
Conditions in all cases: cited from earlier work
[1] = test system: Kv1.2
Source text: (§1) Peptide toxins of venomous animal origin as lead molecules for optimization may offer an advantage over small molecules in terms of potentially greater affinity and specificity. These miniproteins are usually up to 50 amino acids in length and can adopt distinct conformation with secondary structural elements stabilized by several disulfide bonds ([9], [10], [11]). Due to their considerable surface area, miniproteins can form stable complexes with target proteins through extensive interaction surfaces ([12], [13]). The miniprotein Kv1.3 blocker drug candidate, Dalazatide—a synthetic derivative ...

[2] = test system: KCa3.1
Source text: as §1

[3] = test system: mouse Kv1.1
Source text: as §1

CC[C@H](C)[C@H](NC(=O)[C@H](C)NC(=O)[C@H](C)NC(=O)[C@H](C)N)C(=O)N[C@@H](CO)C(=O)N[C@H]1CSSC[C@@H]2NC(=O)[C@H](CCCCN)NC(=O)CNC(=O)[C@H](CC(N)=O)NC(=O)[C@H](CCCCN)NC(=O)[C@@H]3CSSC[C@@H](C(N)=O)NC(=O)[C@H](Cc4ccc(O)cc4)NC(=O)[C@H](Cc4ccc(O)cc4)NC(=O)[C@@H]4CSSC[C@H](NC(=O)[C@H](CCCCN)NC(=O)[C@@H]5CCCN5C(=O)[C@@H]5CCCN5C(=O)[C@H](CSSC[C@H](NC(=O)[C@H](CCCCN)NC(=O)[C@H](CCCNC(=N)N)NC(=O)[C@H](CC(N)=O)NC(=O)[C@H](CCSC)NC2=O)C(=O)N[C@@H](CCCCN)C(=O)N4)NC(=O)[C@H](CCC(=O)O)NC(=O)[C@@H]2CCCN2C(=O)[C@H](CO)NC(=O)CNC(=O)[C@H](C(C)C)NC1=O)C(=O)N[C@@H](CCCNC(=N)N)C(=O)N[C@@H](C)C(=O)N[C@@H](CCC(N)=O)C(=O)NCC(=O)N3 [Vm24, Vm24 toxin]
limited selectivity: selectivity for Kv1.3 over Kv1.2 [1] | selectivity for Kv1.3 over KCa3.1 [2] | selectivity for Kv1.3 over mouse Kv1.1 [3]
